Data published in ChEMBL document CHEMBL1136053, “Development of new hydrogen-bond descriptors and their application to comparative molecular field analyses” (J Med Chem, 2002).
Non-standard residues stand in square brackets, D forms with d. Residues, ends and D or L forms follow the SMILES beside them. ξ: configuration not given here. *: point of attachment. ξF = NC(Cc1ccccc1)C(=O)O; Cbz = O=C(OCc1ccccc1)*; NHOH = ON*

Molecular target: T1, Thermolysin (Bacillus thermoproteolyticus, UniProt P00800)
T1 sequence (P00800 whole entry): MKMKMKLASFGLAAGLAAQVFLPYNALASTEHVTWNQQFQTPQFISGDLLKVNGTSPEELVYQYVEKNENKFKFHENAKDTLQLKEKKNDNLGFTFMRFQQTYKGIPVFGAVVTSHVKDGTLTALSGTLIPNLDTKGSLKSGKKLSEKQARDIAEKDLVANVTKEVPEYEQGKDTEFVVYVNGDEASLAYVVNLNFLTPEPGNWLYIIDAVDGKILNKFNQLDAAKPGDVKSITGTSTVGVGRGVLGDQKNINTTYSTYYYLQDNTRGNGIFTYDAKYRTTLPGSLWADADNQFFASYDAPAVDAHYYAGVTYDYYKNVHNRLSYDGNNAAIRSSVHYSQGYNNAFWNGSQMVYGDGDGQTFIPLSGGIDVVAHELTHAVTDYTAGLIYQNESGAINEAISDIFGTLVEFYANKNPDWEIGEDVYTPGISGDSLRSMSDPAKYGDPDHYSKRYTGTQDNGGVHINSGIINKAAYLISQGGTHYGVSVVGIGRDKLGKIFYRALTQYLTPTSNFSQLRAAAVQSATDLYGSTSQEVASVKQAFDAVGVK
Assay: pKi value expresses binding affinity against thermolysin pKi = -logKi (where Ki is in mol/L)

| Ki [µM] | pKi | SMILES |
| --- | --- | --- |
| 0.851 | – | CC(C)CC(NC(CCNC(=O)C(C)NC(=O)OCc1ccccc1)C(=O)O)C(=O)NC(Cc1ccccc1)C(=O)O (configuration not stated) |
| 3390 | – | CC(=O)N(O)[C@@H](CC(C)C)C(=O)N[C@@H](C)C(=O)NCC(N)=O |
| 0.269 | – | CC(C)CC(NP(=O)(O)CNC(=O)OCc1ccccc1)C(=O)NCC(=O)O (configuration not stated) |
| 229 | – | CC(C)CC(OP(=O)(O)CNC(=O)OCc1ccccc1)C(=O)NCC(=O)O (configuration not stated) |
| 1.41 | – | CC(C)CC(CP(=O)(O)CNC(=O)OCc1ccccc1)C(N)=O (configuration not stated) |
| 0.603 | – | CC(C)CC(NC(CCc1ccccc1)C(=O)O)C(=O)NC(Cc1ccccc1)C(=O)O (configuration not stated) |
| 2.29 | – | O=C(O)CC(=O)NC(CS)Cc1ccccc1 (configuration not stated) |
| 0.302 | – | CC(C)CC(CP(=O)(O)CNC(=O)OCc1ccccc1)C(=O)NCC(=O)O (configuration not stated) |
| 661 | – | CC(C)CC(OP(=O)(O)CNC(=O)OCc1ccccc1)C(N)=O (configuration not stated) |
| 0.182 | – | CC(C)CC(CP(=O)(O)CNC(=O)OCc1ccccc1)C(=O)NC(CC(C)C)C(=O)O (configuration not stated) |
| 0.427 | – | CC(NC(=O)C(Cc1ccccc1)C(=O)NO)C(=O)NCC(=O)Nc1ccc([N+](=O)[O-])cc1 (configuration not stated) |
| 2.82 | – | CC(C)CC(NC(C)C(=O)O)C(=O)NC(Cc1ccccc1)C(=O)O (configuration not stated) |
| 4270 | – | C[C@H](NC(=O)[C@H](Cc1ccccc1)NS(=O)(=O)O)C(=O)NCC(N)=O |
| 47.9 | – | CC(C)C[C@@H](NC(=O)CNC(=O)OCc1ccccc1)C(=O)NO |
| 0.0166 | – | CC(C)CC(NP(=O)(O)CNC(=O)OCc1ccccc1)C(=O)NC(C)C(=O)O (configuration not stated) |
| 1.7 | – | CC(C)CC(NC(CCc1cccc(CN)c1)C(=O)O)C(=O)NC(Cc1ccccc1)C(=O)O (configuration not stated) |
| 417 | – | C[C@H](NC(=O)[C@H](Cc1ccccc1)C(=O)O)C(=O)NCC(N)=O |
| 20 | – | CCOC(=O)C(Cc1ccccc1)C(=O)NO (configuration not stated) |
| 1.82 | – | CC(C)CC(OP(=O)(O)C(C)NC(=O)OCc1ccccc1)C(=O)NC(C)C(=O)O (configuration not stated) |
| 2.69 | – | CC(C)CC(NC(=O)NNC(=O)OCc1ccccc1)C(=O)NO (configuration not stated) |
| 6.76e-05 | – | CC(C)CC(NP(=O)(O)C(Cc1ccccc1)NC(=O)OCc1ccccc1)C(=O)NC(C)C(=O)O (configuration not stated) |
| 0.0525 | – | CCCCCCP(=O)(O)CC(CC(C)C)C(=O)NC(Cc1c[nH]c2ccccc12)C(=O)NC (configuration not stated) |

| Ki [µM] | pKi | SMILES |
| --- | --- | --- |
| 0.759 | – | CC(C)CC(NP(=O)(O)CNC(=O)OCc1ccccc1)C(N)=O (configuration not stated) |
| 30.2 | – | CC(C)CC(OP(=O)(O)[C@@H](Cc1ccccc1)NC(=O)OCc1ccccc1)C(=O)NC(C)C(=O)O (some centres not stated) |
| 0.407 | – | CC(C)CC(NC(CCNC(=O)CNC(=O)OCc1ccccc1)C(=O)O)C(=O)NC(Cc1ccccc1)C(=O)O (configuration not stated) |
| 347 | – | NC(=O)CNC(=O)C(Cc1ccccc1)NC(=O)OCc1ccccc1 (configuration not stated) (Cbz-[ξF]-Gly-NH2) |
| 0.219 | – | CC(C)CC(NC(CCNC(=O)C(Cc1ccccc1)NC(=O)OCc1ccccc1)C(=O)O)C(=O)NC(Cc1ccccc1)C(=O)O (configuration not stated) |
| 0.479 | – | CC(C)CC(NP(=O)(O)[C@@H](Cc1ccccc1)NC(=O)OCc1ccccc1)C(=O)NC(C)C(=O)O (some centres not stated) |
| 38.9 | – | CC(C)C[C@H](NC(=O)CNC(=O)CNC(=O)OCc1ccccc1)C(=O)NO |
| 513 | – | O=C(NC(Cc1ccccc1)C(=O)O)OCc1ccccc1 (configuration not stated) |
| 380 | – | CC(C)CC(NC(=O)NNC(=O)OCc1ccccc1)C(N)=O (configuration not stated) |
| 219 | – | NC(=O)CNC(=O)C(Cc1ccc(O)cc1)NC(=O)OCc1ccccc1 (configuration not stated) |
| 53.7 | – | CC(C)CC(OP(=O)(O)CNC(=O)OCc1ccccc1)C(=O)NC(Cc1ccccc1)C(=O)O (configuration not stated) |
| 12.9 | – | CC(C)CC(OP(=O)(O)CNC(=O)OCc1ccccc1)C(=O)NC(C)C(=O)O (configuration not stated) |
| 2880 | – | C[C@H](NC(=O)[C@H](Cc1ccccc1)NC(=O)CO)C(=O)NCC(N)=O |
| 0.0759 | – | CC(C)CC(NP(=O)(O)CNC(=O)OCc1ccccc1)C(=O)NC(Cc1ccccc1)C(=O)O (configuration not stated) |
| 3390 | – | CC(C)C[C@@H](C(=O)N[C@@H](C)C(=O)NCC(N)=O)N(O)C=O |
| 0.0661 | – | CC(C)CC(CP(=O)(O)CNC(=O)OCc1ccccc1)C(=O)NC(Cc1ccccc1)C(=O)O (configuration not stated) |
| 3800 | – | CCCCC(NC(CC(C)C)C(=O)NC(Cc1ccccc1)C(=O)O)C(=O)O (configuration not stated) |
| – | 3.6 | CC(C)C[C@@H](NC(=O)CNC(=O)CNC(=O)OCc1ccccc1)C(=O)NO |
| 1.45 | – | CCCCCCP(=O)(O)OC(CC(C)C)C(=O)NC(Cc1c[nH]c2ccccc12)C(=O)NC (configuration not stated) |
| 0.661 | – | C[C@H](NC(=O)[C@H](Cc1ccccc1)C(=O)NO)C(=O)NCC(=O)O |
| 3090 | – | CC(C)C[C@H](NC(=O)OCc1ccccc1)C(=O)NCC(N)=O (Cbz-Leu-Gly-NH2) |
| 12.9 | – | CC(C)C[C@H](NC(=O)CNC(=O)OCc1ccccc1)C(=O)NO |

| Ki [µM] | pKi | SMILES |
| --- | --- | --- |
| 0.0191 | – | CC(C)CC(NP(=O)(O)O)C(=O)NC(Cc1ccccc1)C(=O)O (configuration not stated) |
| 0.0339 | – | CC(C)C[C@H](NC(CCc1ccccc1)C(=O)O)C(=O)N[C@@H](Cc1c[nH]c2ccccc12)C(=O)O (some centres not stated) |
| 24 | – | CC(C)CC(OP(=O)(O)[C@@H](C)NC(=O)OCc1ccccc1)C(=O)NC(C)C(=O)O (some centres not stated) |
| 0.661 | – | C[C@H](NC(=O)[C@H](Cc1ccccc1)C(=O)NO)C(=O)NCC(N)=O |
| 0.011 | – | CC(C)CC(NC(CCNC(=O)C(Cc1ccccc1)NC(=O)OCc1ccccc1)C(=O)O)C(=O)NC(Cc1c[nH]c2ccccc12)C(=O)O (configuration not stated) |
| 0.0447 | – | CC(C)CC(OP(=O)(O)C(Cc1ccccc1)NC(=O)OCc1ccccc1)C(=O)NC(C)C(=O)O (configuration not stated) |
| 0.479 | – | CC(C)C[C@H](C(=O)NO)C(=O)N[C@@H](C)C(=O)NCC(N)=O |
| 0.759 | – | C[C@H](NC(=O)[C@@H](CS)Cc1ccccc1)C(=O)NCC(N)=O |
| 8.91 | – | CC(C)CC(NC(=O)C(CC(C)C)OP(=O)(O)CNC(=O)OCc1ccccc1)C(=O)O (configuration not stated) |
| 2240 | – | CC(C)CC(NC(=O)CNC(=O)OCc1ccccc1)C(=O)N(C)O (configuration not stated) |
| 0.00912 | – | CC(C)CC(NC(=O)C(CC(C)C)NP(=O)(O)CNC(=O)OCc1ccccc1)C(=O)O (configuration not stated) |
| 41.7 | – | CC(C)CC(OP(=O)(O)[C@@H](CC(C)C)NC(=O)OCc1ccccc1)C(=O)NC(C)C(=O)O (some centres not stated) |
| 191 | – | CC(C)CC(N)C(=O)NO (configuration not stated) |
| 0.00151 | – | CCCCCCP(=O)(O)NC(CC(C)C)C(=O)NC(Cc1c[nH]c2ccccc12)C(=O)NC (configuration not stated) |
| 20900 | – | CC(C)C[C@H](NC(=O)CNC(=O)OCc1ccccc1)C(N)=O |
| 1620 | – | O=C(CCc1ccccc1)NC(Cc1ccccc1)C(=O)O (configuration not stated) |
| 1100 | – | C[C@H](C(=O)NO)C(=O)N[C@@H](C)C(=O)NCC(N)=O |
| 3090 | – | CC(=O)CC(=O)N[C@@H](Cc1ccccc1)C(=O)N[C@@H](C)C(=O)NCC(N)=O |
| 0.676 | – | CC(C)CC(OP(=O)(O)C(CC(C)C)NC(=O)OCc1ccccc1)C(=O)NC(C)C(=O)O (configuration not stated) |
| 2.57 | – | CC(NC(=O)C(Cc1ccccc1)NP(=O)(O)O)C(=O)NCC(N)=O (configuration not stated) |
| 0.0186 | – | CC(C)CC(CP(=O)(O)CNC(=O)OCc1ccccc1)C(=O)NC(C)C(=O)O (configuration not stated) |
| 933 | – | O=C(CNC(=O)CNC(=O)OCc1ccccc1)NO (Cbz-Gly-Gly-{NHOH}) |

| SMILES | Ki [µM] | pKi |
| --- | --- | --- |
| O=C(O)C(Cc1ccccc1)NP(=O)(O)O (configuration not stated) | 72.4 | – |
| C[C@H](NC(=O)[C@H](C)NP(=O)(O)O)C(=O)O | 87.1 | – |
| CC(C)CC(NP(=O)(O)O)C(N)=O (configuration not stated) | 79.4 | – |
| CC(C)CC(NP(=O)(O)OC1OC(C)C(O)C(O)C1O)C(=O)NC(Cc1c[nH]c2ccccc12)C(=O)O (configuration not stated) | 0.0282 | – |
| C[C@H](NC(=O)[C@H](Cc1ccccc1)NP(=O)(O)S)C(=O)NCC(N)=O (some centres not stated) | 6.92 | – |
| CC[C@H](C)[C@H](NP(=O)(O)O)C(=O)N[C@@H](C)C(=O)O | 0.363 | – |
